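Cells were grown in 96-well plates and exposed to each compound for 48 hours at five concentrations; endpoints were interpolated linearly between bracketing concentrations, or set to the highest concentration if not reached. Abbreviation: GI50, concentration required for 50% inhibition of growth.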 Calls of active or inactive are those of the source. Cut-off read from the data, not from the text of the source: active = GI50 up to about 1.1 µM and inactive = higher.
Legend:
Assay in all cases: inhibition of tumour cell growth, NCI panel, 48 h
[1] = system: 786-0
[2] = system: A549
[3] = system: ACHN
[4] = system: BT-549
[5] = system: CAKI-1
[6] = system: CCRF-CEM
[7] = system: COLO 205
[8] = system: DU-145
[9] = system: EKVX
[10] = system: HCC 2998
[11] = system: HCT-116
[12] = system: HCT-15
[13] = system: HL-60
[14] = system: HOP-62
[15] = system: HOP-92
[16] = system: HT-29
[17] = system: Hs-578T
[18] = system: IGROV-1
[19] = system: K562
[20] = system: KM12
[21] = system: LOX IMVI
[22] = system: M14
[23] = system: MCF7
[24] = system: MDA-MB-231
[25] = system: MDA-MB-435
[26] = system: MDA-N
[27] = system: MOLT-4
[28] = system: Malme-3M
[29] = system: NCI-H226
[30] = system: NCI-H23
[31] = system: NCI-H460
[32] = system: NCI-H522
[33] = system: NCI/ADR-RES
[34] = system: OVCAR-3
[35] = system: OVCAR-4
[36] = system: OVCAR-5
[37] = system: OVCAR-8
[38] = system: PC-3
[39] = system: RPMI-8226
[40] = system: RXF 393
[41] = system: SF-268
[42] = system: SF-295
[43] = system: SF-539
[44] = system: SK-MEL-28
[45] = system: SK-MEL-2
[46] = system: SK-MEL-5
[47] = system: SK-OV-3
[48] = system: SN12C
[49] = system: SNB-75
[50] = system: SR
[51] = system: SW-620
[52] = system: T47D
[53] = system: TK-10
[54] = system: U-251
[55] = system: UACC-257
[56] = system: UACC-62
[57] = system: A498
[58] = system: UO-31
[59] = system: SNB-19

Measured: GI50

Cc1nn(C(=O)c2ccccc2O)c2c1C(c1ccccc1O)SC(=N)N2 (stereo not given)
inactive: [1] 4.53 µM | [2] 8.04 µM | [3] 3.44 µM | [4] > 10 µM | [5] 8.07 µM | [6] 3.1 µM | [7] > 10 µM | [8] 8.85 µM | [9] 9.27 µM | [10] > 10 µM | [11] 4.12 µM | [13] 2.22 µM | [15] > 10 µM | [16] > 10 µM | [17] > 10 µM | [19] 3.24 µM | [20] 4.65 µM | [21] 6.1 µM | [22] 4.54 µM | [23] 2.75 µM | [25] 3.08 µM | [26] > 10 µM | [27] 2.67 µM | [28] > 10 µM | [29] 1.49 µM | [30] 2.94 µM | [31] 4.36 µM | [32] 3.47 µM | [33] 4.09 µM | [34] 2.54 µM | [35] 2.53 µM | [36] 6.32 µM | [37] 2.82 µM | [38] 7.71 µM | [39] 3.34 µM | [40] > 10 µM | [41] 6.81 µM | [42] 7.53 µM | [44] > 10 µM | [45] 4.65 µM | [46] 2.46 µM | [47] 5.02 µM | [48] 4.82 µM | [49] 4.06 µM | [50] 1.95 µM | [51] 6.11 µM | [52] 5.78 µM | [53] 1.69 µM | [54] 4.39 µM | [55] 1.5 µM | [56] 3.08 µM
active: [14] 0.869 µM | [18] 1.01 µM | [24] 0.649 µM | [43] 0.421 µM
4.42 µM: [12]

OC(C#CCN1CCCC1)(c1ccccc1)c1ccccc1Cl (stereo not given)
68.5 µM: [12]
inactive: [1] > 10 µM | [57] 17.1 µM | [2] 33.4 µM | [3] 23.9 µM | [4] 46.2 µM | [5] 24.8 µM | [6] 33.6 µM | [7] 12.5 µM | [8] > 100 µM | [9] 48.5 µM | [10] 21.8 µM | [11] 30.1 µM | [13] 26.8 µM | [14] 19.5 µM | [16] 16.5 µM | [17] 31 µM | [18] 14.8 µM | [19] 30.8 µM | [20] 27.5 µM | [21] 18.7 µM | [23] 17.9 µM | [24] 47.1 µM | [25] 23.2 µM | [26] 23 µM | [27] 33.7 µM | [28] > 10 µM | [29] 80.7 µM | [30] 37.3 µM | [31] 20.2 µM | [32] 22.6 µM | [33] 23.3 µM | [34] 82.8 µM | [35] 31 µM | [36] > 100 µM | [37] 33.8 µM | [38] 27.8 µM | [39] 39.2 µM | [40] 46.8 µM | [41] 44.2 µM | [42] 24.6 µM | [43] 26.5 µM | [44] 17.1 µM | [45] 26.6 µM | [46] 17.7 µM | [47] 61 µM | [48] 43.9 µM | [49] 59.4 µM | [50] 36.3 µM | [51] 18.5 µM | [52] 28.6 µM | [53] 50.8 µM | [54] 17.7 µM | [55] 20.7 µM | [56] 27.2 µM | [58] 24.7 µM

COc1cccc(C2c3cc4c(cc3OC(N3CCCCC3)C2C)OCO4)c1O (stereo not given)
inactive: [1] 4.72 µM | [2] 6.52 µM | [3] 6.55 µM | [4] 9.2 µM | [5] 5.48 µM | [6] 2.4 µM | [7] 4.89 µM | [8] 7.53 µM | [9] 14.7 µM | [10] 10.5 µM | [11] 4.89 µM | [13] 2.54 µM | [14] 4.11 µM | [15] 8.18 µM | [16] 3.43 µM | [17] 3.63 µM | [18] 8.81 µM | [19] 2.23 µM | [20] 4.47 µM | [21] 5.21 µM | [22] 4.2 µM | [23] 5.6 µM | [24] 11.2 µM | [25] 1.75 µM | [26] 2.3 µM | [27] 3.96 µM | [28] 4.53 µM | [29] 6.55 µM | [30] 7.31 µM | [31] 4.13 µM | [32] 2.74 µM | [33] 5.12 µM | [34] 2.93 µM | [35] 7.38 µM | [36] 17.7 µM | [37] 5.9 µM | [38] 4.83 µM | [39] 3.21 µM | [40] 3.25 µM | [41] 9.71 µM | [42] 4.26 µM | [43] 2.22 µM | [44] 6.27 µM | [45] 9.16 µM | [46] 3.62 µM | [47] 6.79 µM | [48] 4.69 µM | [59] 7.93 µM | [49] 5.41 µM | [50] 3.01 µM | [51] 3.97 µM | [52] 8.38 µM | [53] 13.8 µM | [54] 3.82 µM | [55] 8.04 µM | [56] 5.92 µM | [58] 12.4 µM
4.21 µM: [12]

— ChEMBL document CHEMBL1201862, “PubChem BioAssay data set” (2004)
